Series [1] can be described thus: Acute toxicity (LD50 in mice). The conditions noted are these: in vivo, sc; for selectivity ratio: LD50 mouse s.c. / anorectic ED50 rat s.c., read-out: Therapeutic ratio LD50/ED50; for LD50 at 24 h: mouse, 24 hours observation. How it is done:
Groups of 10 male mice of the NMRI-strain with body weights between 18 and 30 gm. The animals were put individually into cylindrical jars and received by subcutaneous injection under the dorsal skin gradually increasing doses from 0.1 to 0.2 ml/10 gm of body weight of the test compound. The limits for the test dosage range had previously been determined on individual mice. The symptoms of poisoning were recorded. After an observation period of 24 hours the dead animals were counted. The determination of the median lethal dose (LD50) according to G. KARBER [Arch. exper. Path. Pharmak. 162, 480, (1931)] concluded the test.

Another series deals with Male albino rats. The series can be described thus: Anorectic test (effect on food intake of fasted rats). Format: in vivo. The conditions noted are these: sc; rat; dose which reduced the food intake by 50% over the reference value; 2 hour test period. As to the method:
Male albino rats with starting weights from 200 to 250 gm, kept in so-called makrolon-cages, three to a cage, in an air-conditioned room at a temperature of 22 ± 1° C and about 50 % relative humidity. Between test runs, food (standard feed Altromin R) and drinking water were freely accessible.
A combination metabolism and motility test cage, described by J. M. van ROSSUM and F. SIMONS (Psychopharmacologia 14, 248, 1969) was used. With the aid of this device it is possible to measure the food intake and motoric activity on the same test animal.
For effecting and evaluating this test, a modified version of the method of J. SPENGLER and P. WASER [Arch. exp. Path. Pharmcol. 237, 171 (1959)] was used. A test group consisting of 6 ats was used for the test over a 3months' period, once a week, always on the same day of the week and at the same time of day. In preparation for the test, the animals were fasted for 24 hours while they had free access to drinking water. Then, they were put singly into the above-mentioned test cage for 2 hours, where a preweighed quantity of feed (Altromin-R, pulverized) and drinking water was offered ad libitum. Scattered feed was collected carefully, the consumed quantity of feed was determined by weighing the remaining quantity, and the food intake was calculated in terms of grams per 100 gm body weight. the test compound was injected subcutaneously or administered orally by esophageal sound at the beginning of the test period. […] Therefore, each group served as its own control. In the control tests the rats were given at the beginning of the 2 hour test period, 0.1 ml/100 gm water orally or 0.1 ml/100 gm physiological NaCl-solution subcutaneously. Before the test runs, 3 to 4 control tests were made and repeated later at intervals of 5 weeks. The average amount of the food intake which the animals had shown in the control tests was taken as the reference value. The anorectic activity of the test compound was expressed in terms of the percentage reduction of this reference value, and the median anorectic dose (ED50), i.e. the dose which reduced the food intake by 50% over the reference value was graphically calculated.

Where a name gives a salt, the structure may show the parent alone.

The term LD50 denotes the dose expected to kill half of the subjects tested. The low end stands for a more toxic substance, the high end for a less toxic substance. The ED50 is the midpoint of the dose-response relation.

Consider `CCN1CCc2nc3ccccc3c(C)c2CC1.Cl.Cl` [A, 3-ethyl-1,2,4,5-tetrahydro-11-methyl-3H-azepino[4,5-b]quinoline dihydrochloride], for which, in series [1], the selectivity ratio turned out to be 95 and the LD50 at 24 h stood at 180 mg/kg. For the same compound, the ED50 in the series on Male albino rats worked out at 1.9 mg/kg.
For the compound `Cc1c2c(nc3ccccc13)CCCNC2.Cl.Cl` [B, 2,3,4,5-tetrahydro-11-methyl-1H-azepino[4,3-b]quinoline dihydrochloride], in series [1], the selectivity ratio was 177 and the LD50 at 24 h turned out to be 195 mg/kg. Moreover, the ED50 in the series with Male albino rats is 1.1 mg/kg.
As to `Cc1c2c(nc3ccccc13)CCNCC2.Cl.Cl` [C, 1,2,4,5-tetrahydro-11-methyl-3H-azepino[4,5-b]quinoline dihydrochloride], in series [1], the selectivity ratio stood at 415 and the LD50 at 24 h turned out to be 83 mg/kg. In addition, the ED50 with Male albino rats was found to be 0.2 mg/kg.
Consider `CCCc1c2c(nc3ccccc13)CCNCC2.Cl.Cl` [Compound E, 1,2,4,5-tetrahydro-11-propyl-3H-azepino[4,5-b]quinoline dihydrochloride], for which, in series [1], the selectivity ratio turned out to be 164 and the LD50 at 24 h was 148 mg/kg. Moreover, in the series with Male albino rats, the ED50 was 0.9 mg/kg.
As to `CCOC(=O)N1CCc2nc3ccccc3c(C)c2CC1` [D, 1,2,4,5-tetrahydro-11-methyl-3-azepino[4,5-b]quinoline-carboxylic acid ethyl ester], in series [1], the selectivity ratio stood at 1010 and the LD50 at 24 h came to 810 mg/kg. Also, the ED50 in the series with Male albino rats stood at 0.8 mg/kg.
The matching figures for `Cc1c2c(nc3ccc(Cl)cc13)CCNCC2.Cl.Cl` [F, 9-chloro-1,2,4,5-tetrahydro-11-methyl-3H-azepino[4,5-b]quinoline dihydrochloride]: 143, 215 mg/kg and 1.5 mg/kg.
In the case of `Cc1c2c([n+]([O-])c3ccccc13)CCNCC2` [G, 1,2,4,5-tetrahydro-11-methyl-3H-azepino[4,5-b]quinoline-6-N-oxide hydrochloride], in series [1], the selectivity ratio stood at 394 and the LD50 at 24 h amounted to 315 mg/kg. Besides, the ED50 with Male albino rats came out at 0.8 mg/kg.
Take `Cc1c2c(nc3ccccc13)C(O)CNCC2.Cl.Cl` (stereo not drawn) [H, 5-hydroxy-1,2,4,5-tetrahydro-11-methyl-3H-azepino[4,5-b]quinoline dihydrochloride]: in series [1], the selectivity ratio stood at 420 and the LD50 at 24 h was found to be 126 mg/kg. Moreover, the ED50 in the series on Male albino rats stood at 0.3 mg/kg.
As for `CCCN1CCc2nc3ccccc3c(C)c2CC1.Cl.Cl` [I, 1,2,4,5-tetrahydro-11-methyl-3propyl-3H-azepino[4,5-b]quinoline dihydrochloride], in the series on Male albino rats, the 50% effective dose (ED50) came out at 0.9 mg/kg.
Turning to `Cc1c2c(nc3ccccc13)CCN(C(=O)OC(C)(C)C)CC2.Cl` [J, 1,2,4,5-tetrahydro-11-methyl-3azepino[4,5-b]quinoline-carboxylic acid tert.butyl ester hydrochloride], in the series on Male albino rats, the ED50 is 1.1 mg/kg.
Take `Cc1c2c(nc3cccc(Cl)c13)CCNCC2` [K, 10-chloro-1,2,4,5-tetrahydro-11-methyl-3H-azepino[4,5-b]quinoline dihydrochloide]: the ED50 in the series with Male albino rats was 1.3 mg/kg.
With `CCOC(=O)N1CCc2c(nc3ccccc3c2C)C(O)C1` (stereo not drawn) [L, 5-hydroxy-1,2,4,5-tetrahydro-11-methyl-3-azepino[4,5-b]quinoline-carboxylic acid ethyl ester], in the series on Male albino rats, the ED50 was 4 mg/kg.
For the compound `Cc1c2c(nc3ccccc13)CCN(CC(C)O)CC2.Cl.Cl` (stereo not drawn) [M, 3-(2-hydroxy-propyl)-1,2,4,5-tetrahydro-11-methyl-3H-azepino[4,5-b]quinoline dihydrochloride], the ED50 in the series on Male albino rats came to 2 mg/kg.
As to `COC(=O)N1CCc2nc3ccccc3c(C)c2CC1` [N, 1,2,4,5-tetrahydro-11-methyl-3-azepino[4,5-b]quinoline-carboxylic acid methyl ester], the ED50 with Male albino rats was found to be 1.8 mg/kg.

For the origin of these results see US3987047A, “Tetrahydro-azepinoquinolines” (Boehringer Ingelheim GmbH, priority 1973, dated 1976).
